Results on three compounds are retold here after PMC6066355, “Probing the binding site of novel selective positive allosteric modulators at the M1 muscarinic acetylcholine receptor” (Biochemical Pharmacology, 2018).

One assay concerns the target T1, WT M1 mAChR (Homo sapiens, UniProt P11229).
T1 construct: expressed in transfected cells
T1 sequence (P11229 1-460): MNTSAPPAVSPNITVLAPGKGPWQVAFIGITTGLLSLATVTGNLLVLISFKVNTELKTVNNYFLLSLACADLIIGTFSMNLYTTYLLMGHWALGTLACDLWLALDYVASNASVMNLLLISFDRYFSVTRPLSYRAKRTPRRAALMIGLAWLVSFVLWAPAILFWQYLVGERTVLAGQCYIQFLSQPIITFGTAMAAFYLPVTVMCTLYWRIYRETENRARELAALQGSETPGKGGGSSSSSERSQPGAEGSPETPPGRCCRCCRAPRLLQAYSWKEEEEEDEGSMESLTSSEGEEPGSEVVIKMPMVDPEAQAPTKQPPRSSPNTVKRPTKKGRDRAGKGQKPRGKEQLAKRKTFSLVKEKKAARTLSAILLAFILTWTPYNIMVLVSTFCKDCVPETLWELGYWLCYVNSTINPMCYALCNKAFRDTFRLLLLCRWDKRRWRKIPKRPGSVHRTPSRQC
Kind of assay: IP-One (IP1) accumulation assay, CHO-hM1 cells. Type of assay: cell-based. Particulars: for αβ (functional cooperativity with ACh, antilog in brackets) / Logαβ (logarithm of functional cooperativity between ACh and modulator): non-alkylated; for Logαβ (logarithm of functional cooperativity between ACh and modulator): pKB constrained to Table 1, β constrained to 1. The procedure: The IP-One assay kit (Cisbio) was used for the direct quantitative measurement of myo-Inositol 1 phosphate (IP1). Cells were seeded at 25,000 per well into 96-well transparent cell culture plates and incubated overnight at 37 °C. […] Cells were then lysed with IP1 lysis buffer (50 mM HEPES pH 7.0, 15 mM KF, 1.5% V/V Triton-X-100, 3% V/V FBS, 0.2% W/V BSA), and IP1 levels were measured by incubation of cell lysates with FRET reagents (the cryptate-labeled anti-IP1 antibody and the d2-labeled IP1 analogue) for 1 h at 37 °C. […] Signals were expressed as the FRET ratio: F = (fluorescence665 nm/fluorescence590 nm) × 10^4, and normalized to the response to maximal ACh concentration (100 µM).
(Eq. (2)) was used:(2) Y=Basal+Em-Basal/1+KA+A/τA where Em is the maximal possible system response and Basal is the response in the absence of agonist. [A] denotes the concentration of ligand, and KA represents its equilibrium dissociation constants. τ denotes the intrinsic efficacy of the ligand, which incorporates the total receptor density and the efficiency of stimulus-response coupling.
Functional interaction studies between orthosteric agonists and allosteric modulators in IP1 assays were analysed using the following operational model of allosterism and agonism (Eq. (3)):(3) E=Basal+Em-BasalAKB+αβB+τBBEC50/EC50KB+B+AKB+αβB+τBBEC50 where Em is the maximal possible system response, and Basal is the response in the absence of agonist. KB is the equilibrium dissociation constant of allosteric ligand, and EC50 is the concentration of orthosteric agonist required to achieve half maximal response. [A] and [B] denote concentrations of orthosteric and allosteric ligands, respectively. α and β denote allosteric effects on orthosteric ligand binding affinity and efficacy, respectively, and τB denotes the efficacy of allosteric ligand. This model assumes that ACh is a full agonist at the receptor in both the absence/presence of modulator and/or there is no efficacy modulation (i.e., β = 1).

Another assay concerns the target T2, Y82^2.61A M1 mAChR (Homo sapiens, UniProt P11229, Y82A).
T2 construct: expressed in transfected cells
T2 sequence (P11229 1-460 Y82A): T1 sequence (P11229 1-460) with Y82A
Nature of the assay: Whole cell [3H]NMS binding inhibition/interaction assay (ACh ± PAM), FlpIn CHO cells. The procedure: (§1) Saturation binding assays were performed to estimate the expression levels and equilibrium dissociation constant of the radioligand (KD). FlpIn CHO cells stably expressing the WT or mutant c-myc hM1 mAChRs were plated at the density of 25,000 per well of 96-well white clear bottom Isoplates (PerkinElmer Life Sciences, Boston, MA), and grown overnight at 37 °C. […] Atropine at the final concentration of 100 µM was used to determine non-specific binding. The assays were terminated by rapid removal of the radioligand, and two washes with 100 µl/well ice-cold 0.9% NaCl buffer.
(§2) All data were analysed using GraphPad Prism 7 (San Diego, CA). […] Binding interaction studies between orthosteric agonists and allosteric modulators were fitted to the following allosteric ternary complex model (Eq. (1)):(1) Y=BmaxD/D+KDKB/α^′B+KB1+I/KI+B/KB+αIB/KIKB where Bmax is the total number of receptors, [D], [B] and [I] denote the concentrations of radioligand, allosteric ligand, and orthosteric ligand, respectively, and KD, KB and KI represent their respective equilibrium dissociation constants. α′ and α are the cooperativity factors between the allosteric ligand and radioligand or orthosteric ligand, respectively.

The next assay addresses T3, W400^7.35A M1 mAChR (Homo sapiens, UniProt P11229, W400A).
T3 construct: expressed in transfected cells
T3 sequence (P11229 1-460 W400A): T1 sequence (P11229 1-460) with W400A
The description is as above. The settings on record: affinity and cooperativity could not be estimated. Here is the method:
as §1, §2

Changes are numbered by the printed parent chain. Like-named read-outs stand apart in the source and are kept apart here.

As for `Cn1cc(-c2ccc(COc3ccccc3-c3cc(=O)n(C4CCCCC4O)cn3)cc2)cn1` (stereo not drawn) [MIPS1780, 3-(2-hydroxycyclohexyl)-6-(2-((4-(1-methyl-1H-pyrazol-4-yl)-benzyl)oxy)phenyl)pyrimidin-4(3H)-one], at WT M1 mAChR, the “LogτB (logarithm of functional efficacy of the modulator)” value (shortened to “LogτB”) is 1.00 ± 0.05; the “τB (functional efficacy of the modulator, antilog in brackets)” value came out at 10; the “αβ (functional cooperativity with ACh, antilog in brackets)” value came to 59; the “Logαβ (logarithm of functional cooperativity between ACh and modulator)” value (shortened to “Logαβ”) was 1.77 ± 0.14. At Y82^2.61A M1 mAChR, this compound had a Kb of 10000 nM. In addition, on Y82^2.61A M1 mAChR (Y82^2.61A), the “Logα ACh (logarithm of binding cooperativity between ACh and modulator)” value (shortened to “Logα ACh”) stood at 1.66 ± 0.19; the “Logα NMS (logarithm of binding cooperativity between [3H]NMS and modulator)” value (“Logα NMS” below) is on record as −0.16 ± 0.06; the “α ACh (binding cooperativity with ACh, antilog in brackets)” value turned out to be 45.7; the “α NMS (binding cooperativity with [3H]NMS, antilog in brackets)” value was determined as 0.69. Also, at W400^7.35A M1 mAChR, the “Modulatory effect on ACh inhibition of [3H]NMS binding” value (from here on “Modulatory effect on ACh inhibition”) is recorded as “completely abolished”.
As to `Cc1cnc(C(=O)N[C@H]2CCOC[C@@H]2O)cc1Cc1ccc(-c2cscn2)cc1` [PF-06767832, N-((3R,4S)-3-hydroxytetrahydro-2H-pyran-4-yl)-5-methyl-4-(4-(thiazol-4-yl)benzyl)pyridine-2-carboxamide], on WT M1 mAChR, the “LogτB” value is on record as 1.01 ± 0.03; the “τB (functional efficacy of the modulator, antilog in brackets)” value is given as 10; the “αβ (functional cooperativity with ACh, antilog in brackets)” value was 83; the “Logαβ” value was 1.92 ± 0.11. At Y82^2.61A M1 mAChR (Y82^2.61A), the “Logα ACh” value was found to be 1.53 ± 0.11; the “Logα NMS” value is recorded as −0.16 ± 0.02; the “α ACh (binding cooperativity with ACh, antilog in brackets)” value is given as 30.9; the “α NMS (binding cooperativity with [3H]NMS, antilog in brackets)” value is reported as 0.62. In addition, on Y82^2.61A M1 mAChR (Y82^2.61A, allosteric ternary complex model, 0.6 nM [3H]NMS, read-out: pKB (negative logarithm of the allosteric modulator equilibrium dissociation constant) (converted)), the Kb was 2450 nM. Moreover, at W400^7.35A M1 mAChR, the “Modulatory effect on ACh inhibition” value is “completely abolished”.
Take `Cn1cc(-c2ccc(Cn3cc(C(=O)N[C@H]4CCCC[C@@H]4O)c4c(F)cc(F)cc43)cn2)cn1` [VU6004256, 4,6-difluoro-N-(1S,2S)-2-hydroxycyclohexyl-1-((6-(1-methyl-1H-pyrazol-4-yl)pyridine-3-yl)methyl)-1H-indole-3-carboxamide]: at WT M1 mAChR, the “LogτB” value stood at 1.24 ± 0.05; the “τB (functional efficacy of the modulator, antilog in brackets)” value worked out at 17; the “αβ (functional cooperativity with ACh, antilog in brackets)” value is 60; the “Logαβ” value is given as 1.78 ± 0.18. Besides, the Kb at Y82^2.61A M1 mAChR was 2240 nM. Moreover, at Y82^2.61A M1 mAChR (Y82^2.61A), the “Logα ACh” value was 1.08 ± 0.13; the “Logα NMS” value is recorded as −0.09 ± 0.03; the “α ACh (binding cooperativity with ACh, antilog in brackets)” value came out at 11.2; the “α NMS (binding cooperativity with [3H]NMS, antilog in brackets)” value is on record as 0.76. Also, the “Modulatory effect on ACh inhibition” value on W400^7.35A M1 mAChR is “completely abolished”.
